Values joined by “and” are separate entries in the source; they are usually repeats but may differ in a detail not shown here. Equal entries are not always repeated. Toxic doses and inconclusive results are not listed.
Test system: P388 leukemia ip, CD2F1 mice, survival T/C
Assay: NCI In Vivo Anticancer Drug Screen. Data for tumor model P388 Leukemia (intraperitoneal) in CD2F1 (CDF1) mice
Settings: endpoint: median survival time, higher = longer survival
Summary of the method: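 Mice carrying the transplanted tumor received test compound or vehicle. Survival was recorded in each group, and the value is the treated-group measurement divided by that of the vehicle-treated control group.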

[1] = dose: 6.0 mg/kg/injection, schedule: Q01DX005 (ip), vehicle: saline
[2] = dose: 25.0 mg/kg/injection, schedule: Q01DX009 (ip), vehicle: saline with Tween-80
[3] = dose: 50.0 mg/kg/injection, schedule: Q01DX009 (ip), vehicle: saline with Tween-80
[4] = dose: 12.5 mg/kg/injection, schedule: Q01DX005 (ip), vehicle: saline

With S=P(N1CC1)(N1CC1)N1CC1 the T/C (dose: 0.62 mg/kg/injection, schedule: Q01DX005 (ip), vehicle: saline) was 100 % of control, the T/C (dose: 0.75 mg/kg/injection, schedule: Q01DX005 (ip), vehicle: saline) was 118 % of control and the T/C (dose: 0.75 mg/kg/injection, schedule: Q01DX009 (ip), vehicle: saline) was 106 % of control. The T/C (dose: 1.25 mg/kg/injection, schedule: Q01DX005 (ip), vehicle: saline) was 115 % of control, the T/C (dose: 1.25 mg/kg/injection, schedule: Q04DX003 (ip), vehicle: water) was 101 % of control and 110 % of control (2×) and the T/C (dose: 1.5 mg/kg/injection, schedule: Q01DX005 (ip), vehicle: saline) was 114 % of control and 120 % of control. For the same molecule, the T/C (dose: 2.0 mg/kg/injection, schedule: Q01DX009 (ip), vehicle: saline) was 124 % of control, the T/C (dose: 2.5 mg/kg/injection, schedule: Q04DX003 (ip), vehicle: water) was 110 % of control and the T/C (dose: 3.0 mg/kg/injection, schedule: Q01DX005 (ip), vehicle: saline) was 163 % of control. For the same molecule, the T/C (dose: 3.0 mg/kg/injection, schedule: Q01DX009 (ip), vehicle: saline) was 163 % of control and 174 % of control, the T/C (dose: 3.24 mg/kg/injection, schedule: Q04DX002 (ip), vehicle: saline) was 124 % of control and the T/C (dose: 4.0 mg/kg/injection, schedule: Q01DX009 (ip), vehicle: saline) was 178 % of control. The T/C (dose: 5.0 mg/kg/injection, schedule: Q01DX005 (ip), vehicle: saline) was 169 % of control, the T/C (dose: 5.0 mg/kg/injection, schedule: Q04DX003 (ip), vehicle: water) was 163 % of control and the T/C [1] was 181 % of control and 207 % of control and 90 % of control. The T/C (dose: 8.0 mg/kg/injection, schedule: Q01DX009 (ip), vehicle: saline) was 101 % of control, the T/C (dose: 9.0 mg/kg/injection, schedule: Q04DX002 (ip), vehicle: saline) was 166 % of control and the T/C (dose: 10.0 mg/kg/injection, schedule: Q04DX003 (ip), vehicle: water) was 159 % of control and 200 % of control and 229 % of control. For the same molecule, the T/C (dose: 12.0 mg/kg/injection, schedule: Q01DX005 (ip), vehicle: saline) was 88 % of control, the T/C (dose: 15.0 mg/kg/injection, schedule: Q04DX002 (ip), vehicle: saline) was 197 % of control and the T/C (dose: 20.0 mg/kg/injection, schedule: Q04DX003 (ip), vehicle: water) was 110 % of control and 90 % of control and 92 % of control. The T/C (dose: 25.0 mg/kg/injection, schedule: Q04DX002 (ip), vehicle: saline) was 240 % of control.
In the case of O=c1[nH]c2ccc(Br)cc2c(=O)o1, the T/C (dose: 12.5 mg/kg/injection, schedule: Q01DX009 (ip), vehicle: saline with Tween-80) is reported as 104 % of control, the T/C [2] is reported as 102 % of control and the T/C [3] is reported as 110 % of control. The T/C (dose: 100.0 mg/kg/injection, schedule: Q01DX001 (ip), vehicle: other) was 100 % of control, the T/C (dose: 100.0 mg/kg/injection, schedule: Q01DX009 (ip), vehicle: saline with Tween-80) was 114 % of control and the T/C (dose: 200.0 mg/kg/injection, schedule: Q01DX001 (ip), vehicle: other) was 100 % of control. For the same molecule, the T/C (dose: 400.0 mg/kg/injection, schedule: Q01DX001 (ip), vehicle: other) was 95 % of control.
For Cc1nn2c(-c3cnns3)nnc2s1, the T/C (dose: 50.0 mg/kg/injection, schedule: Q01DX001 (ip), vehicle: Klucel (hydroxypropylcellulose) (HPC)) was 107 % of control, the T/C (dose: 100.0 mg/kg/injection, schedule: Q01DX001 (ip), vehicle: Klucel (hydroxypropylcellulose) (HPC)) was 107 % of control and the T/C (dose: 200.0 mg/kg/injection, schedule: Q01DX001 (ip), vehicle: Klucel (hydroxypropylcellulose) (HPC)) was 100 % of control.
In the case of CN=c1ccc2nc3ccc(N)cc3sc-2c1, the T/C [4] is reported as 105 % of control, the T/C (dose: 25.0 mg/kg/injection, schedule: Q01DX005 (ip), vehicle: saline) is reported as 107 % of control and the T/C (dose: 50.0 mg/kg/injection, schedule: Q01DX005 (ip), vehicle: saline) is reported as 103 % of control.
For COc1cc(NCC(O)CN2C(C)CCCC2C)c2ncccc2c1 (configuration not stated), the T/C [1] was 98 % of control and the T/C [4] was 100 % of control.
O=NN(CCCl)C(=O)N[C@H]1CCCC[C@@H]1Cl was tested, and the T/C [2] was 250 % of control, the T/C (dose: 33.0 mg/kg/injection, schedule: Q04DX003 (ip), vehicle: saline with Tween-80) was 200 % of control and the T/C [3] was 109 % of control. For the same molecule, the T/C (dose: 50.0 mg/kg/injection, schedule: Q04DX003 (ip), vehicle: saline with Tween-80) was 300 % of control and the T/C (dose: 100.0 mg/kg/injection, schedule: Q04DX003 (ip), vehicle: saline with Tween-80) was 90 % of control.

From PubChem BioAssay AID330 (DTP/NCI, 2004)
